Test results: ChEMBL document CHEMBL1140093, “Structure-activity relationships for a novel series of dopamine D2-like receptor ligands based on N-substituted 3-aryl-8-azabicyclo[3.2.1]octan-3-ol” (J Med Chem, 2008)

What was measured:
D(3) dopamine receptor [1] = target: T1, D(3) dopamine receptor (Homo sapiens, UniProt P35462); assay: Displacement of [125I]IABN from human dopamine D3 receptor expressed in HEK293 cells; type: cell-based
D(2) dopamine receptor [2] = target: T2, D(2) dopamine receptor (Homo sapiens, UniProt P14416); assay: Displacement of [125I]IABN from human dopamine D2L receptor expressed in HEK293 cells; type: cell-based
[3] = target: T3, 5-hydroxytryptamine receptor 1A (Homo sapiens, UniProt P08908); assay: Displacement of [3H]8OH-DPAT from 5HT1A receptor
T3 sequence (P08908 whole entry): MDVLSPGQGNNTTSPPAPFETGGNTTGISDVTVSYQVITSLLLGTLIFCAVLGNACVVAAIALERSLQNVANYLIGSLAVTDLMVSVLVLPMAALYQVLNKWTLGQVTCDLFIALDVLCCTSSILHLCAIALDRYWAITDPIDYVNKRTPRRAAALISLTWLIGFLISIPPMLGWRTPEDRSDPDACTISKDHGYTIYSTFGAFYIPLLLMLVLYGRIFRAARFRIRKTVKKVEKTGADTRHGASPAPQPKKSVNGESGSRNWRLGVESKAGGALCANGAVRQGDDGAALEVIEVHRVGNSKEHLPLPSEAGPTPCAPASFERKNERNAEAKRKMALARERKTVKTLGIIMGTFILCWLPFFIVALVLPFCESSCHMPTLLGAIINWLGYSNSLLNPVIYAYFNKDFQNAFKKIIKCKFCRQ

D(1A) dopamine receptor = D(1A) dopamine receptor (Homo sapiens, UniProt P21728); assay: Displacement of [3H]SCH23390 from dopamine D1 receptor
[4] = target: T4, 5-hydroxytryptamine receptor 2C (Homo sapiens, UniProt P28335); assay: Displacement of [3H]mesulergine from 5HT2C receptor
T4 sequence (P28335 whole entry): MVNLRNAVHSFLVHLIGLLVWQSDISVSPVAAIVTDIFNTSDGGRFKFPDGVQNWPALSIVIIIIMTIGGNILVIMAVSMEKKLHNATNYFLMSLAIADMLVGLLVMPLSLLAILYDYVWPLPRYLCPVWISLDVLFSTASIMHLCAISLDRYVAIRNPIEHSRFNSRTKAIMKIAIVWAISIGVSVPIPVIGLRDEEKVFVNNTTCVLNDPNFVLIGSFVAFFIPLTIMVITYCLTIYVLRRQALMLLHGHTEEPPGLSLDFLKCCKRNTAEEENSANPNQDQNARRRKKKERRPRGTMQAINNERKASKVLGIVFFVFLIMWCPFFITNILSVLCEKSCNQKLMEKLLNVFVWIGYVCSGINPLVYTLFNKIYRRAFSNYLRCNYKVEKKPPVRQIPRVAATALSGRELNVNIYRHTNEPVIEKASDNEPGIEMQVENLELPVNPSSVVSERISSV

D(4) dopamine receptor = target: T5, D(4) dopamine receptor (Homo sapiens, UniProt P21917); assay: Displacement of [125I]IABN from human dopamine D4 receptor
T5 sequence (P21917 whole entry): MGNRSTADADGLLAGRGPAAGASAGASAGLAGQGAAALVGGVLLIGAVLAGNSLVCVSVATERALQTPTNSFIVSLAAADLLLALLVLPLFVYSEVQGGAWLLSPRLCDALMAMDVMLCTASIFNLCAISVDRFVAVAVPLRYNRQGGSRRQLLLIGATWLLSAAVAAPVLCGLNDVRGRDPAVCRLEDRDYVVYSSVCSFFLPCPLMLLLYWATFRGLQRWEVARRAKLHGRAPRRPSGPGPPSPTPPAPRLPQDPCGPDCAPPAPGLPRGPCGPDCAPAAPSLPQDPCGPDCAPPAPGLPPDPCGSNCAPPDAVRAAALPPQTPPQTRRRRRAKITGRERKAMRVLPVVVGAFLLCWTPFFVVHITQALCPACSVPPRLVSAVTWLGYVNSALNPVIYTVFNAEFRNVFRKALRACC

D(3) dopamine receptor [5] = target: T1, D(3) dopamine receptor; assay: Antagonist activity at dopamine D3 receptor; type: functional
[6] = target: 5-hydroxytryptamine receptor 2A (Homo sapiens, UniProt P28223); assay: Displacement of [3H]ketanserin from 5HT2A receptor
D(2) dopamine receptor [7] = target: T2, D(2) dopamine receptor; assay: Antagonist activity at dopamine D2 receptor; type: functional

T1 sequence (P35462 whole entry): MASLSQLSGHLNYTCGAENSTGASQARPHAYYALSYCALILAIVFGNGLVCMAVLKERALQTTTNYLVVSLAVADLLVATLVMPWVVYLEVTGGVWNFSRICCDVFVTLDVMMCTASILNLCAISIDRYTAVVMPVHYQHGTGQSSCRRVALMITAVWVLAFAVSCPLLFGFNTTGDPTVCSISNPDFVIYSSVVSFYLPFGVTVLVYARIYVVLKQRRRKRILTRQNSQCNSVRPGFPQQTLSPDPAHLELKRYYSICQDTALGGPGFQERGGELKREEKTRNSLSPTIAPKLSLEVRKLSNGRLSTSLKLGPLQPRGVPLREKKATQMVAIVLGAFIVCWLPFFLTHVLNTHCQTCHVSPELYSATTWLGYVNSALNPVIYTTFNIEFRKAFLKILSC
T2 sequence (P14416 whole entry): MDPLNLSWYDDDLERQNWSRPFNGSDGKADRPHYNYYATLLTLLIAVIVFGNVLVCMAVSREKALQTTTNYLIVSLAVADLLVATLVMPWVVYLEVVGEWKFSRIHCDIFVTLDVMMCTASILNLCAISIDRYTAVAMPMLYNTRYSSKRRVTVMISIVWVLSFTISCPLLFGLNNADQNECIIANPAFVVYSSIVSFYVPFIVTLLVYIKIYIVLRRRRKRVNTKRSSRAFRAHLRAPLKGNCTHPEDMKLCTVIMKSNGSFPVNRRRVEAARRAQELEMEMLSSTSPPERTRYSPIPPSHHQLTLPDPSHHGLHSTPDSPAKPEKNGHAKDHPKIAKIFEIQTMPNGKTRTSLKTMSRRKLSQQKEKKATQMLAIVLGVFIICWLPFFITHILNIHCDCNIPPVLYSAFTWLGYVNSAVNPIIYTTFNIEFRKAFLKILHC
Sequence of 5-hydroxytryptamine receptor 2A (P28223 whole entry): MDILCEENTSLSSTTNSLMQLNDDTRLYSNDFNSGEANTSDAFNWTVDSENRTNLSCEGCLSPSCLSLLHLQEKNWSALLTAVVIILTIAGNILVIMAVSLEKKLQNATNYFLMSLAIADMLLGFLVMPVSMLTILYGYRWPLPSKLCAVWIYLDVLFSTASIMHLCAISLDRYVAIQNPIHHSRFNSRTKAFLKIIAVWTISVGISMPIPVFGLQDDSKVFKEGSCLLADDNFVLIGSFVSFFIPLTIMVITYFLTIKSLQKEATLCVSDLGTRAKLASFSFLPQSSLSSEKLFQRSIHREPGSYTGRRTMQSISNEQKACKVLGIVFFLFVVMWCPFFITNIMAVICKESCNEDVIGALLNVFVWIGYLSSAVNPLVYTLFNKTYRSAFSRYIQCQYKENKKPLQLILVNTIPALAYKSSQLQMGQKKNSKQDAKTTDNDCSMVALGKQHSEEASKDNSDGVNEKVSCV
Sequence of D(1A) dopamine receptor (P21728 whole entry): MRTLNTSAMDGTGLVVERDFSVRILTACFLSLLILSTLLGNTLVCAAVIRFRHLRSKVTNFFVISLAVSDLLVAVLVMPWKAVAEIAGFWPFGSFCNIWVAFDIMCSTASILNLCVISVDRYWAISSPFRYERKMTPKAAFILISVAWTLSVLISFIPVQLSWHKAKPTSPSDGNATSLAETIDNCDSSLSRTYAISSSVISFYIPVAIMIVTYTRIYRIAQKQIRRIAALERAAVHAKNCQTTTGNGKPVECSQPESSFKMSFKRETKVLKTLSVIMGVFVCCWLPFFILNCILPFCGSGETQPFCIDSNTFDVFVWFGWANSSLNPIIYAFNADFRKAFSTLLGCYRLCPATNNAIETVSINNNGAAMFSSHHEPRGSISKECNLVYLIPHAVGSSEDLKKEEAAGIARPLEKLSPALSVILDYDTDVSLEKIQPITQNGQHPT

Compound	Ki (D(3) dopamine receptor [1]) [nM]	Ki (D(2) dopamine receptor [2]) [nM]	further results
O[C@@]1(c2cccc(Cl)c2Cl)C[C@H]2CC[C@@H](C1)N2Cc1coc2ccccc12	32.2	–	–
O[C@@]1(c2ccc(Br)cc2)C[C@H]2CC[C@@H](C1)N2Cc1coc2ccccc12	0.92	1.5	–
O[C@@]1(c2ccc(F)cc2)C[C@H]2CC[C@@H](C1)N2Cc1c[nH]c2ccccc12	31	–	–
COc1ccccc1[C@]1(O)C[C@H]2CC[C@@H](C1)N2Cc1c[nH]c2ccccc12	6410	2070	–
COc1ccc2[nH]cc(CN3[C@@H]4CC[C@H]3C[C@](O)(c3ccc(Cl)cc3)C4)c2c1	21.2	–	–
O[C@]1(c2ccc(Cl)cc2)C[C@H]2CC[C@@H](C1)N2Cc1c[nH]c2ccccc12	15.5	33.4	Ki [3]: > 10000 nM; Ki (D(1A) dopamine receptor): 1220 nM; Ki [4]: > 10000 nM; Ki (D(4) dopamine receptor): > 5000 nM; IC50 (D(3) dopamine receptor [5]): 12.3 nM; Ki [6]: 4770 nM; IC50 (D(2) dopamine receptor [7]): 48.3 nM
O[C@@]1(c2ccc(Cl)cc2)C[C@H]2CC[C@@H](C1)N2Cc1coc2c1ccc1ccccc12	2	5.6	–
O[C@@]1(c2ccc(Cl)cc2)C[C@H]2CC[C@@H](C1)N2Cc1csc2ccccc12	3.62	12.9	Ki [3]: 1720 nM; Ki (D(1A) dopamine receptor): 3000 nM; Ki [4]: > 10000 nM; Ki (D(4) dopamine receptor): 140 nM; IC50 (D(3) dopamine receptor [5]): 4.2 nM; IC50 (D(2) dopamine receptor [7]): 26.2 nM
O[C@@]1(c2cccc(Cl)c2Cl)C[C@H]2CC[C@@H](C1)N2Cc1csc2ccccc12	431	280	–
O[C@@]1(c2ccc(Cl)cc2)C[C@H]2CC[C@@H](C1)N2Cc1coc2ccc3ccccc3c12	8.4	11.7	–
O[C@@]1(c2ccc(Cl)cc2)C[C@H]2CC[C@@H](C1)N2Cc1coc2ccc(F)cc12	0.37	1.2	–
O[C@@]1(c2cccc(Cl)c2Cl)C[C@H]2CC[C@@H](C1)N2Cc1c[nH]c2ccccc12	480	545	–
CSc1ccc([C@]2(O)C[C@H]3CC[C@@H](C2)N3Cc2c[nH]c3ccccc23)cc1	541	565	–
COc1ccc2occ(CN3[C@@H]4CC[C@H]3C[C@](O)(c3ccc(Cl)cc3)C4)c2c1 (single isomer, unassigned)	2.1	1.5	–
O[C@]1(c2ccc(Cl)c(Cl)c2)C[C@H]2CC[C@@H](C1)N2Cc1coc2ccccc12	0.34	1.7	–
O[C@@]1(c2ccc(Cl)cc2)C[C@H]2CC[C@@H](C1)N2Cc1coc2ccccc12	0.71	–	Ki [4]: > 10000 nM; IC50 (D(3) dopamine receptor [5]): 0.85 nM
COc1ccc2[nH]cc(CN3[C@@H]4CC[C@H]3C[C@](O)(c3ccc(SC)cc3)C4)c2c1	1210	554	–
O[C@@]1(c2ccc(Cl)cc2)C[C@H]2CC[C@@H](C1)N2Cc1n[nH]c2ccccc12	84.7	225	–
O[C@@]1(c2ccc(F)cc2)C[C@H]2CC[C@@H](C1)N2Cc1coc2ccccc12	1.2	4.9	–
OC1(c2ccc(Cl)cc2)CCN(Cc2c[nH]c3ccccc23)CC1	–	–	Ki (D(4) dopamine receptor): 1100 nM; IC50 (D(3) dopamine receptor [5]): 90.4 nM
O[C@@]1(c2ccc(Cl)c(Cl)c2)C[C@H]2CC[C@@H](C1)N2Cc1c[nH]c2ccccc12	6.35	–	Ki [3]: > 10000 nM; IC50 (D(3) dopamine receptor [5]): 10.2 nM; Ki [6]: 2800 nM
O[C@@]1(c2ccc3ccccc3c2)C[C@H]2CC[C@@H](C1)N2Cc1c[nH]c2ccccc12	224	196	–
O[C@@]1(c2ccc(Cl)c(Cl)c2)C[C@H]2CC[C@@H](C1)N2Cc1coc2ccc(F)cc12	0.53	1.4	–
